This passage reports pest or weed control and plant injury results from patent US12077503B2, “Substituted cyclic amides and their use as herbicides” (FMC CORPORATION, priority 2015, dated 2024).

Common to all, as to assay type: in vivo
The test system of assay [1] is pigweed (Amaranthus retroflexus). Put plainly: Test A postemergence. The conditions noted are these: Amaranthus retroflexus, post-emergence, 240 h, postemergence; for pest or weed control at 125 g/ha: 125 g ai/ha. In short, it runs like this:
(§1)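 Each rating is a visual injury score from 0 to 100 given about 10 d after treatment, judged against untreated controls kept alongside in the greenhouse. In loam soil–sand blend, seeds got a preemergence directed soil spray, while postemergence plants were 2 to 10 cm tall at spraying.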

In assay [2] the test system is wheat (Triticum aestivum). Description: Test A postemergence. Conditions: Triticum aestivum, post-emergence, 240 h, postemergence; for plant injury at 125 g/ha: 125 g ai/ha. The procedure, abridged: as §1
The test system of assay [3] is Galium (catchweed bedstraw, Galium aparine). Description: Test A postemergence. The conditions noted are these: Galium, post-emergence, 240 h, postemergence; for pest or weed control at 125 g/ha: 125 g ai/ha. The procedure, abridged:
as §1

Assay [4] has as its system Kochia (Kochia scoparia). Put plainly: Test A postemergence. Conditions: Bassia scoparia, post-emergence, 240 h, postemergence; for pest or weed control at 125 g/ha: 125 g ai/ha. The procedure, abridged: as §1
Assay [5] relates to giant foxtail (Setaria faberii). Description: Test A postemergence. The conditions noted are these: Setaria faberi, post-emergence, 240 h, postemergence; for pest or weed control at 125 g/ha: 125 g ai/ha. The procedure, abridged: as §1
For assay [6], the system named is barnyardgrass (Echinochloa crus-galli). Description: Test B flooded paddy test. The conditions noted are these: Echinochloa crus-galli, 250 g ai/ha, Flood, read-out: Barnyardgrass plant response rating. The procedure, abridged:
(§2)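 Percent control, visually estimated after 13–15 d in the greenhouse on a 0–100 basis, compares treated pots with untreated ones; compound was put into paddy water 3 cm above the soil when plants had two leaves.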

Assay [7] concerns sedge, umbrella (small-flower umbrella sedge, Cyperus difformis). Description: Test B flooded paddy test. Conditions: Cyperus difformis, 250 g ai/ha, Flood, read-out: Sedge, Umbrella plant response rating. In short, it runs like this:
as §2

Another assay concerns rice (Oryra sativa). Put plainly: Test B flooded paddy test. The conditions noted are these: Oryza sativa, 250 g ai/ha, Flood, read-out: Rice plant response rating. In short, it runs like this:
as §2

Assay [8] has as its system ducksalad (Heteranthera limosa). Put plainly: Test B flooded paddy test. Conditions: Heteranthera limosa, 250 g ai/ha, Flood, read-out: Ducksalad plant response rating. In short, it runs like this:
as §2

Assay [9] deals with barnyardgrass (Echinochloa crus-galli). Put plainly: Test A preemergence. Conditions: Echinochloa crus-galli, pre-emergence, 240 h, preemergence; for pest or weed control at 125 g/ha: 125 g ai/ha; for pest or weed control at 500 g/ha: 500 g ai/ha. In short, it runs like this:
as §1

Assay [10] concerns pigweed (Amaranthus retroflexus). Put plainly: Test A preemergence. Conditions: Amaranthus retroflexus, pre-emergence, 240 h, preemergence; for pest or weed control at 125 g/ha: 125 g ai/ha; for pest or weed control at 500 g/ha: 500 g ai/ha.
For assay [11], the system named is ryegrass, Italian (Italian ryegrass, Lolium multiflorum). Description: Test A preemergence. The conditions noted are these: Lolium multiflorum, pre-emergence, 240 h, preemergence; for pest or weed control at 125 g/ha: 125 g ai/ha; for pest or weed control at 500 g/ha: 500 g ai/ha. In short, it runs like this: as §1
For assay [12], the system named is Kochia (Kochia scoparia). Description: Test A preemergence. The conditions noted are these: Bassia scoparia, pre-emergence, 240 h, preemergence; for pest or weed control at 125 g/ha: 125 g ai/ha, 0 to 100 scale where 0 is no effect and 100 is complete control. The procedure, abridged:
as §1

Assay [13] has as its system ragweed (common ragweed, Ambrosia elatior). Put plainly: Test A preemergence. The conditions noted are these: Ambrosia artemisiifolia, pre-emergence, 240 h, preemergence; for pest or weed control at 125 g/ha: 125 g ai/ha; for pest or weed control at 500 g/ha: 500 g ai/ha. The procedure, abridged: as §1
For assay [14], the system named is giant foxtail (Setaria faberii). Description: Test A preemergence. Conditions: Setaria faberi, pre-emergence, 240 h, preemergence; for pest or weed control at 125 g/ha: 125 g ai/ha; for pest or weed control at 500 g/ha: 500 g ai/ha. The procedure, abridged: as §1
[15] abbreviates: 0 to 100 scale where 0 is no effect and 100 is complete control.
[16] abbreviates: scale of 0 to 100 where 0 is no effect and 100 is complete control.

Like-named read-outs stand apart in the source and are kept apart here.

As to `COc1ccc([C@H]2CN(C)C(=O)[C@@H]2C(=O)Nc2ccccc2SC)c(OC)c1` [Compound 1216], the pest or weed control at 125 g/ha is 0% in assay [1] (visual injury vs untreated controls after approx. 10 d, 0 = no effect, 100 = complete control, read-out: Pigweed plant response rating (0 to 100 scale)); 0% in [3] (visual injury vs untreated controls after approx. 10 d, 0 = no effect, 100 = complete control, read-out: Galium plant response rating (0 to 100 scale)); 0% in the assay on Kochia (Kochia scoparia) [4] (visual injury vs untreated controls after approx. 10 d, 0 = no effect, 100 = complete control, read-out: Kochia plant response rating (0 to 100 scale)); 20% in assay [5] (visual injury vs untreated controls after approx. 10 d, 0 = no effect, 100 = complete control, read-out: Foxtail, Giant plant response rating (0 to 100 scale)); 0% in [9] (visual injury rating, 0 to 100 scale where 0 is no effect and 100 is complete control, approximately 10 d, read-out: Barnyardgrass plant response rating); 0% in assay [10] (visual injury rating, 0 to 100 scale where 0 is no effect and 100 is complete control, approximately 10 d, read-out: Pigweed plant response rating). Moreover, the pest or weed control at 125 g/ha in [11] (visual injury rating, 0 to 100 scale where 0 is no effect and 100 is complete control, approximately 10 d, read-out: Ryegrass, Italian plant response rating) was determined as 0%; in the assay on Kochia (Kochia scoparia) [12] (visual injury rating, approximately 10 d, read-out: Kochia plant response rating), 0%; in assay [13] (visual injury rating, 0 to 100 scale where 0 is no effect and 100 is complete control, approximately 10 d, read-out: Ragweed plant response rating), 0%; in assay [14] (visual injury rating, 0 to 100 scale where 0 is no effect and 100 is complete control, approximately 10 d, read-out: Foxtail, Giant plant response rating), 30%. The pest or weed control at 500 g/ha in assay [1] (500 g ai/ha, 0 to 100 scale, 0 is no effect, 100 is complete control, read-out: Pigweed plant response rating) was 0%; in assay [3] (500 g ai/ha, 0 to 100 scale, 0 is no effect, 100 is complete control, read-out: Galium plant response rating) it was 0%; in the assay on Kochia (Kochia scoparia) [4] (500 g ai/ha, 0 to 100 scale, 0 is no effect, 100 is complete control, read-out: Kochia plant response rating) it was 40%; in assay [5] (500 g ai/ha, 0 to 100 scale, 0 is no effect, 100 is complete control, read-out: Foxtail, Giant plant response rating), 80%; in [9] (0 to 100 scale where 0 is no effect and 100 is complete control, read-out: Barnyardgrass plant response rating), 90%; in [10] (0 to 100 scale where 0 is no effect and 100 is complete control, read-out: Pigweed plant response rating) it was 0%. The pest or weed control at 500 g/ha in assay [11] (0 to 100 scale where 0 is no effect and 100 is complete control, read-out: Ryegrass, Italian plant response rating) was found to be 0%; in assay [13] (0 to 100 scale where 0 is no effect and 100 is complete control, read-out: Ragweed plant response rating), 20%; in assay [14] (0 to 100 scale where 0 is no effect and 100 is complete control, read-out: Foxtail, Giant plant response rating), 80%. For the same molecule, the plant injury at 125 g/ha in [2] (visual injury vs untreated controls after approx. 10 d, 0 = no effect, 100 = complete control, read-out: Wheat plant response rating (0 to 100 scale)) was 0%. In addition, in assay [2] (500 g ai/ha, 0 to 100 scale, 0 is no effect, 100 is complete control, read-out: Wheat plant response rating), the plant injury at 500 g/ha came out at 0%. Moreover, the pest or weed control at 250 g/ha (in [6] (setting [15]); in [7] (setting [15]); in the assay on rice (Oryra sativa) (setting [15]); in assay [8] (setting [15])) was 0% in each case.

For the molecule `C=CCN1C[C@H](c2ccc(OC)c(F)c2)[C@@H](C(=O)Nc2ccccc2C(F)(F)F)C1=O` [Compound 723], the pest or weed control at 125 g/ha in [1] (visual injury after approximately 10 d, 0 to 100 scale (0 no effect, 100 complete control), read-out: Plant response rating, Pigweed) was found to be 0%; in assay [3] (visual injury after approximately 10 d, 0 to 100 scale (0 no effect, 100 complete control), read-out: Plant response rating, Galium), 0%; in the assay with Kochia (Kochia scoparia) [4] (visual injury after approximately 10 d, 0 to 100 scale (0 no effect, 100 complete control), read-out: Plant response rating, Kochia), 0%; in [5] (visual injury after approximately 10 d, 0 to 100 scale (0 no effect, 100 complete control), read-out: Plant response rating, Foxtail, Giant), 0%; in assay [9] (visual rating after approx. 10 d, 0 to 100 scale where 0 is no effect and 100 is complete control, read-out: Plant response rating, Barnyardgrass), 0%; in assay [10] (visual rating after approx. 10 d, 0 to 100 scale where 0 is no effect and 100 is complete control, read-out: Plant response rating, Pigweed), 0%. The pest or weed control at 125 g/ha worked out at 0% in [11] (visual rating after approx. 10 d, 0 to 100 scale where 0 is no effect and 100 is complete control, read-out: Plant response rating, Ryegrass, Italian); 0% in the assay with Kochia (Kochia scoparia) [12] (visual rating after approx. 10 d, read-out: Plant response rating, Kochia); 0% in assay [13] (visual rating after approx. 10 d, 0 to 100 scale where 0 is no effect and 100 is complete control, read-out: Plant response rating, Ragweed); 0% in assay [14] (visual rating after approx. 10 d, 0 to 100 scale where 0 is no effect and 100 is complete control, read-out: Plant response rating, Foxtail, Giant). Further, in [2] (visual injury after approximately 10 d, 0 to 100 scale (0 no effect, 100 complete control), read-out: Plant response rating, Wheat), the plant injury at 125 g/ha stood at 0%. Also, the pest or weed control at 250 g/ha (in [6] (setting [16]); in [7] (setting [16]); with rice (Oryra sativa) (setting [16]); in assay [8] (setting [16])) was 0% throughout. Besides, the pest or weed control at 500 g/ha is 0% in assay [9] (0 to 100 scale, 0 = no effect, 100 = complete control, read-out: Plant response rating, Barnyardgrass); 0% in assay [10] (0 to 100 scale, 0 = no effect, 100 = complete control, read-out: Plant response rating, Pigweed); 0% in assay [11] (0 to 100 scale, 0 = no effect, 100 = complete control, read-out: Plant response rating, Ryegrass, Italian); 0% in the assay on Kochia (Kochia scoparia) [12] (500 g ai/ha, 0 to 100 scale, 0 = no effect, 100 = complete control, read-out: Plant response rating, Kochia); 0% in assay [13] (0 to 100 scale, 0 = no effect, 100 = complete control, read-out: Plant response rating, Ragweed); 50% in assay [14] (0 to 100 scale, 0 = no effect, 100 = complete control, read-out: Plant response rating, Foxtail, Giant).
